Results reported in patent publication US6413936B1, “Glycomimetics as selectin antagonists and pharmaceuticals having antiinflammatory activity” (Glycorex AB, priority 1995, dated 2002).
Like-named read-outs stand apart in the source and are kept apart here. One block for each compound: values may come before it. Numbered stars: 1 amine (or outer) side, 2 acyl side, 3 side chain; on linkers, the order of the positions; unused ones are H or OH. Square brackets hold non-standard residues; d marks the D form. Peptide text beside a SMILES is read from it. ξ: configuration not given here. X1 = CC1O[C@@H](CCCc2ccc(CC(N[*:1])C(=O)[*:2])cc2)C(O)C(O)[C@@H]1O; ξR = N=C(N)NCCCC(N)C(=O)O; ξS = NC(CO)C(=O)O

Key:
P-selectin [1] = target: T1, P-selectin (Homo sapiens, UniProt P16109); conditions: read-out: IC50 for binding to P-selectin; cited from earlier work
T1 sequence (P16109 42-830): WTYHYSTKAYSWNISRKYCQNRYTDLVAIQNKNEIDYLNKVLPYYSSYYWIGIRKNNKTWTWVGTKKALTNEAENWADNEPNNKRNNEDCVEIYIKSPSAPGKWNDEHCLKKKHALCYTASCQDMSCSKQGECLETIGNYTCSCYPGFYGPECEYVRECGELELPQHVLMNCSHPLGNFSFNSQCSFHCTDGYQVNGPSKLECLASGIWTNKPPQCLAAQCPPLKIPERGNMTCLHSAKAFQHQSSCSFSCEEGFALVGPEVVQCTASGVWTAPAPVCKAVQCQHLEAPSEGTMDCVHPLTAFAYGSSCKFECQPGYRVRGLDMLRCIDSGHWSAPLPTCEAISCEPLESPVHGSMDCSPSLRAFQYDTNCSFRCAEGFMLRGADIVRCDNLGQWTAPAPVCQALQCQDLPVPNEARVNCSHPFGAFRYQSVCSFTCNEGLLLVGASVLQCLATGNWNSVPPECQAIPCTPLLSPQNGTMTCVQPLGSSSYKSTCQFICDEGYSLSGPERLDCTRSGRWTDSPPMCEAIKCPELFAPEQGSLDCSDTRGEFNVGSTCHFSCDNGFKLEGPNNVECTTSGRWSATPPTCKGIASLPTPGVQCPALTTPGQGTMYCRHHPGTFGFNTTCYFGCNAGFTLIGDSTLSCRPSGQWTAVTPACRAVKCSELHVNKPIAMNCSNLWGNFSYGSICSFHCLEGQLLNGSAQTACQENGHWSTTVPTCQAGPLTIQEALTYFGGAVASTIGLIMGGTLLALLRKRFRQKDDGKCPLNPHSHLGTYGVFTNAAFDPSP

P-selectin [2] = target: T2, P-selectin (Homo sapiens, UniProt P16109); assay: HL60 cell adhesion assay on recombinant soluble P-selectin-IgG1 fusion protein; assay type: cell-based; conditions: HL60 cell adhesion to P-selectin-IgG1
T2 construct: fused on or other part: constant region (hinge-Fc) of human IgG1 at the C-terminus, used as a capture handle
T2 sequence (P16109 42-321 limits assumed): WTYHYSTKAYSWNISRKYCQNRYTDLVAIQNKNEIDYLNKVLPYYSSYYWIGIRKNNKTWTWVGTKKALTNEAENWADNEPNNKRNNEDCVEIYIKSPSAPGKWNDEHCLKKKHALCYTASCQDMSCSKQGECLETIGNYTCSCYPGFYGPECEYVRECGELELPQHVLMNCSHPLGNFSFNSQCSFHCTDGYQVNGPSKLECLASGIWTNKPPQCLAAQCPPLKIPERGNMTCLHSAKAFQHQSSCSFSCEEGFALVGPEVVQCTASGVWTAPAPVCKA
From the text: 5. […] In the course of this, the cells have the opportunity to adhere to the coated plastic.

E-selectin = target: T3, E-selectin (Homo sapiens, UniProt P16581); assay: HL60 cell adhesion assay on recombinant soluble E-selectin-IgG1 fusion protein; assay type: cell-based; conditions: HL60 cell adhesion to E-selectin-IgG1
T3 construct: fusion proteins formed from the extracytoplasmatic domains of E- or P-selectin, respectively, and the constant region of human immunoglobulin of the IgG1 subclass; made in house; host or cells: COS-7 cells (transient transfection, culture supernatant)
T3 sequence (P16581 22-556): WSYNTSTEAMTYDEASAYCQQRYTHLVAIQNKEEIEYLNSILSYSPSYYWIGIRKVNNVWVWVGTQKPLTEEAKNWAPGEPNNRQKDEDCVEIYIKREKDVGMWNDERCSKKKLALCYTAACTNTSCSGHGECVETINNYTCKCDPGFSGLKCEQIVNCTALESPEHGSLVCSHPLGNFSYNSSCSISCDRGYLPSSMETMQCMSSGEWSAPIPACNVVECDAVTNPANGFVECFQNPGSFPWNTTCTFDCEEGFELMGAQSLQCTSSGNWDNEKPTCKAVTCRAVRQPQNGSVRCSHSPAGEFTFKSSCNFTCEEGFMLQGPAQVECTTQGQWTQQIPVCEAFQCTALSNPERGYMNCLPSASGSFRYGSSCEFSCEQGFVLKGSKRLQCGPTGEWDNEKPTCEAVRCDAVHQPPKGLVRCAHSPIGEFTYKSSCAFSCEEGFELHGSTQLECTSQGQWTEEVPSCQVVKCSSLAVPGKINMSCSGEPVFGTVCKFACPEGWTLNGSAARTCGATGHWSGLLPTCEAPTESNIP
From the text: In these assays, the ligands may be supplied in their natural form as surface structures on promyelocytic HL60 cells. Since HL60 cells contain ligands and adhesion molecules of very different specificity, the desired specificity of the assay must therefore be provided by the binding component. Preferably, the binding components used are recombinant, soluble, fusion proteins formed from the extracytoplasmatic domains of E- or P-selectin, respectively, and the constant region of human immunoglobulin of the IgG1 subclass. […] An example of a suitable negative control is a fusion protein formed between the extracytoplasmic domain of CD4 and the IgG constant region.
These fusion proteins are then used in a cell adhesion assay in which COS cells transfected with the recombinant fusion proteins are first bound to the surface of a microtiter plate. The compound to be tested is added to the wells of the microtiter platein varying concentrations, followed by HL60 cells. After a defined period of time, the wells of the microtiter plate are washed and the HL60 cells adhering to the plate are counted. In a preferred embodiment, the HL60 cells are prelabeled with a fluorescent dye to facilitate cell counting. The number of cells adhering to the plate allows quantification of the inhibitory properties of the compound under test. […]

selectins [3] = conditions: prior-art glycopeptide analogs; cited from earlier work
selectin = conditions: cited from earlier work
[4] = system: P-selectin-dependent lung damage; conditions: animal experiments; cited from earlier work
[5] = system: myocardial reperfusion injuries; conditions: animal experiments; cited from earlier work
selectins [6] = conditions: prior-art mimetics, Wong et al.; cited from earlier work

Compound: C[C@@H]1O[C@@H](CC(=O)CO[C@H]2CC[C@@]3(C)C(CC[C@]4(C)[C@H]3C(=O)C=C3[C@@H]5C[C@@](C)(C(=O)O)CC[C@]5(C)CC[C@]34C)C2(C)C)[C@@H](O)[C@H](O)[C@@H]1O (some centres unmarked) [(4a)]
IC50 (P-selectin [1]): 750 µM

IC50 (P-selectin [2]): 3000 to 5000 µM
Compound: CC1O[C@@H](CCCc2ccc(CC(N)C(=O)NC(CCCNC(=N)N)C(=O)NCC(=O)N[C@@H](CC(=O)O)C(=O)NC(CO)C(=O)O)cc2)C(O)C(O)[C@@H]1O (stereo partly drawn) [Compound 36, Ser-Asp-Gly-Arg-[C-FucPhe]] (H-[X1][ξR]GD[ξS]-OH)

IC50 (E-selectin): 2000 µM
IC50 (P-selectin [2]): 2000 µM
Compound: CC1O[C@@H](C/C=C/c2ccc(C(=O)O)cc2)C(O)[C@@H](O)[C@@H]1O (some centres unmarked) [Compound 23]

IC50 (E-selectin): 2000 µM
IC50 (P-selectin [2]): 2000 µM
Compound: C[C@@H]1O[C@@H](CCCc2ccc(CC(N)C(=O)O)cc2)[C@@H](O)[C@H](O)[C@@H]1O (some centres unmarked) [Compound 20]

Compound: C[C@@H]1OC(CC(=O)C2CCC[C@H]2C(=O)N[C@@H](Cc2ccccc2)C(=O)O)[C@@H](O)[C@H](O)[C@@H]1O (some centres unmarked) [(2)]
IC50 (selectins [3]): ~1000 µM

Compound: COC1OC(C)C(O)(CC(=O)CCCOC2(C(=O)O)CC(O)C(NC(C)=O)C([C@H](O)[C@H](O)CO)O2)C(O)C1O (some centres unmarked)
affinity for selectin binding (selectin): only low affinity

Compound: sialyl-Lewis-X [SLeX]
protection against P-selectin-dependent lung damage [4]: used successfully
protection against myocardial reperfusion injuries [5]: used successfully

Compound: C[C@@H]1OC(CCCCC2O[C@H](CO)[C@H](O)[C@H](OCC(=O)O)[C@H]2O)[C@@H](O)C(O)[C@@H]1O (some centres unmarked) [(3)]
IC50 (selectins [6]): 10000 to 20000 µM
